According to ChEMBL document CHEMBL1201862, “PubChem BioAssay data set” (2004):
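Results reflect a 48-hour exposure of cells in 96-well plates to compound at five concentrations. The concentration for 50% growth inhibition is given as GI50.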 Activity calls are given as the source filed them. Rule as the data show it: active = GI50 up to about 1.1 µM and inactive = higher.

Tests used:
Test in all cases: DTP human tumour cell line panel, 48 h
KM12 = test system: KM12
SF-539 = test system: SF-539
SN12C = test system: SN12C
HCT-116 = test system: HCT-116
SF-268 = test system: SF-268
T47D = test system: T47D
NCI-H460 = test system: NCI-H460
OVCAR-5 = test system: OVCAR-5
HT-29 = test system: HT-29
786-0 = test system: 786-0
M14 = test system: M14
LOX IMVI = test system: LOX IMVI
TK-10 = test system: TK-10
HOP-62 = test system: HOP-62
IGROV-1 = test system: IGROV-1
SR = test system: SR
COLO 205 = test system: COLO 205
RPMI-8226 = test system: RPMI-8226
NCI/ADR-RES = test system: NCI/ADR-RES
MDA-N = test system: MDA-N

SMILES	GI50 (KM12)	GI50 (SF-539)	GI50 (SN12C)	GI50 (HCT-116)	GI50 (SF-268)	GI50 (T47D)	GI50 (NCI-H460)	GI50 (OVCAR-5)	GI50 (HT-29)	GI50 (786-0)	GI50 (M14)	GI50 (LOX IMVI)	GI50 (TK-10)	GI50 (HOP-62)	GI50 (IGROV-1)	GI50 (SR)	GI50 (COLO 205)	GI50 (RPMI-8226)	GI50 (NCI/ADR-RES)	GI50 (MDA-N)
O=C(/C=C/c1ccc(OCc2ccccc2)cc1)NCc1ccc(C(=O)NCc2ccccc2)cc1	> 100 µM (inactive)	> 100 µM (inactive)	> 100 µM (inactive)	> 100 µM (inactive)	> 100 µM (inactive)	> 100 µM (inactive)	> 100 µM (inactive)	> 100 µM (inactive)	> 100 µM (inactive)	> 100 µM (inactive)	> 100 µM (inactive)	> 100 µM (inactive)	> 100 µM (inactive)	> 100 µM (inactive)	> 100 µM (inactive)	> 100 µM (inactive)	> 100 µM (inactive)	> 100 µM (inactive)	> 100 µM (inactive)	> 100 µM (inactive)
CC(C)(C)c1cc(OCc2nnc3sc(Cc4ccccc4)nn23)c(Cl)cc1OCc1nnc2sc(Cc3ccccc3)nn12	18.8 µM (inactive)	30.8 µM (inactive)	44.6 µM (inactive)	24.3 µM (inactive)	44.2 µM (inactive)	9.59 µM (inactive)	17.7 µM (inactive)	29 µM (inactive)	22.1 µM (inactive)	17.3 µM (inactive)	29 µM (inactive)	29.1 µM (inactive)	30.1 µM (inactive)	46.6 µM (inactive)	22 µM (inactive)	3.52 µM (inactive)	21.6 µM (inactive)	20.7 µM (inactive)	76 µM (inactive)	24.5 µM (inactive)
O=C(c1c(F)c(F)c(F)c(F)c1F)c1c(F)c(F)c(F)c(F)c1F	0.535 µM (active)	1.09 µM (active)	1.87 µM (inactive)	1.51 µM (inactive)	2.55 µM (inactive)	1.69 µM (inactive)	2.25 µM (inactive)	1.9 µM (inactive)	1.32 µM (inactive)	0.476 µM (active)	2.1 µM (inactive)	0.71 µM (active)	1.19 µM (inactive)	1.81 µM (inactive)	1.3 µM (inactive)	0.174 µM (active)	1.45 µM (inactive)	0.0528 µM (active)	3.13 µM (inactive)	1.43 µM (inactive)
COc1ccc(/C=C2\N/C(=N\N=C/C(O)C(O)C(O)C(O)CO)NC2=O)cc1 (configuration not stated)	30 µM (inactive)	19.6 µM (inactive)	23.9 µM (inactive)	53.6 µM (inactive)	22.7 µM (inactive)	12.5 µM (inactive)	42.7 µM (inactive)	> 100 µM (inactive)	71.8 µM (inactive)	35.5 µM (inactive)	19.4 µM (inactive)	65.3 µM (inactive)	41.6 µM (inactive)	24.9 µM (inactive)	73.6 µM (inactive)	45.2 µM (inactive)	44.6 µM (inactive)	> 100 µM (inactive)	> 100 µM (inactive)	20.1 µM (inactive)
CC(=O)c1c2c(cc3c1CC1(Cc4cc5c(cc4C1)C(=O)CCC5)C3)CCCC2 (configuration not stated)	5.3 µM (inactive)	4.17 µM (inactive)	13.4 µM (inactive)	14.4 µM (inactive)	8.07 µM (inactive)	5.38 µM (inactive)	4.69 µM (inactive)	35.2 µM (inactive)	3.25 µM (inactive)	5.66 µM (inactive)	7.8 µM (inactive)	7.18 µM (inactive)	16.5 µM (inactive)	5.09 µM (inactive)	3.45 µM (inactive)	2.48 µM (inactive)	4.86 µM (inactive)	3.48 µM (inactive)	5 µM (inactive)	2.87 µM (inactive)
CC(=O)O[C@H]1C[C@H]2[C@@H](OC(C)=O)/C=C3\C[C@](C)(C(=O)[C@H](O)C(=C1C)C2(C)C)[C@@H](O)C[C@@H]3OC(=O)[C@H](O)[C@H](c1ccccc1)N(C)C	> 100 µM (inactive)	> 100 µM (inactive)	> 100 µM (inactive)	> 100 µM (inactive)	> 100 µM (inactive)	> 100 µM (inactive)	> 100 µM (inactive)	> 100 µM (inactive)	–	> 100 µM (inactive)	> 100 µM (inactive)	> 100 µM (inactive)	> 100 µM (inactive)	> 100 µM (inactive)	> 100 µM (inactive)	> 100 µM (inactive)	> 100 µM (inactive)	> 100 µM (inactive)	> 100 µM (inactive)	> 100 µM (inactive)
Clc1ccc(Nc2nc(Cl)c3nc[nH]c3n2)cc1Cl	18.1 µM (inactive)	> 10 µM (inactive)	43.8 µM (inactive)	29.5 µM (inactive)	22.1 µM (inactive)	14.2 µM (inactive)	14.5 µM (inactive)	48.8 µM (inactive)	18.2 µM (inactive)	15.8 µM (inactive)	36.7 µM (inactive)	13.4 µM (inactive)	32.4 µM (inactive)	15.9 µM (inactive)	22.2 µM (inactive)	19.2 µM (inactive)	18.6 µM (inactive)	29 µM (inactive)	35.6 µM (inactive)	39.8 µM (inactive)
COc1ccc(-c2cc(-c3ccccc3)n(C3OC(COC(C)=O)C(OC(C)=O)C(OC(C)=O)C3OC(C)=O)c(=S)c2C#N)cc1 (configuration not stated)	16.9 µM (inactive)	3.88 µM (inactive)	9.79 µM (inactive)	6.07 µM (inactive)	14.2 µM (inactive)	4.69 µM (inactive)	7.48 µM (inactive)	15.7 µM (inactive)	6.28 µM (inactive)	3.44 µM (inactive)	8 µM (inactive)	4.51 µM (inactive)	25.9 µM (inactive)	3.81 µM (inactive)	14.8 µM (inactive)	13.6 µM (inactive)	11.3 µM (inactive)	3.28 µM (inactive)	11 µM (inactive)	8.05 µM (inactive)
CCCCC1Cc2ccccc2-c2n1c1ccccc1[n+]2C (configuration not stated)	9.55 µM (inactive)	27.8 µM (inactive)	–	17.6 µM (inactive)	11.4 µM (inactive)	0.959 µM (active)	16.2 µM (inactive)	42.9 µM (inactive)	10 µM (inactive)	38.2 µM (inactive)	23.3 µM (inactive)	10.4 µM (inactive)	22.8 µM (inactive)	24.9 µM (inactive)	17.3 µM (inactive)	7.67 µM (inactive)	–	1.94 µM (inactive)	> 100 µM (inactive)	12.3 µM (inactive)
O=C1CSC(c2cc3cc(Br)ccc3nc2Cl)N1c1ccc(Cl)cc1 (configuration not stated)	13 µM (inactive)	17.7 µM (inactive)	20.2 µM (inactive)	23.6 µM (inactive)	22.2 µM (inactive)	21 µM (inactive)	16.1 µM (inactive)	94.8 µM (inactive)	32.9 µM (inactive)	35.6 µM (inactive)	21.1 µM (inactive)	16.1 µM (inactive)	29.6 µM (inactive)	25.8 µM (inactive)	16.8 µM (inactive)	15.1 µM (inactive)	17.9 µM (inactive)	25.4 µM (inactive)	20.5 µM (inactive)	27.4 µM (inactive)
Clc1ccc(C2NN=C3c4ccccc4OCC32)cc1 (configuration not stated)	3.64 µM (inactive)	2.17 µM (inactive)	5.73 µM (inactive)	2.81 µM (inactive)	5.36 µM (inactive)	5.83 µM (inactive)	4.3 µM (inactive)	8.87 µM (inactive)	3.13 µM (inactive)	4.65 µM (inactive)	2.84 µM (inactive)	8.02 µM (inactive)	22.8 µM (inactive)	6.71 µM (inactive)	3.2 µM (inactive)	1.86 µM (inactive)	2.96 µM (inactive)	2.44 µM (inactive)	2.35 µM (inactive)	0.83 µM (active)
CCOC(=O)c1sc2nc1CSc1sc(=S)sc1SCc1nc(sc1C(=O)OCC)-c1nc(c(C(=O)OCC)s1)CSc1sc(=S)sc1SCc1nc-2sc1C(=O)OCC	> 10 µM (inactive)	> 10 µM (inactive)	> 10 µM (inactive)	> 10 µM (inactive)	> 10 µM (inactive)	> 10 µM (inactive)	> 10 µM (inactive)	> 10 µM (inactive)	> 10 µM (inactive)	> 10 µM (inactive)	–	> 10 µM (inactive)	> 10 µM (inactive)	> 10 µM (inactive)	> 10 µM (inactive)	> 10 µM (inactive)	> 10 µM (inactive)	> 10 µM (inactive)	> 10 µM (inactive)	> 10 µM (inactive)
O[C@H]1[C@H]2[C@H](O)C[C@H](CCOCc3ccccc3)CN2C[C@H]1O	> 100 µM (inactive)	> 100 µM (inactive)	> 100 µM (inactive)	> 100 µM (inactive)	> 100 µM (inactive)	> 100 µM (inactive)	> 100 µM (inactive)	> 100 µM (inactive)	> 100 µM (inactive)	> 100 µM (inactive)	> 100 µM (inactive)	> 100 µM (inactive)	–	–	> 100 µM (inactive)	> 100 µM (inactive)	> 100 µM (inactive)	> 100 µM (inactive)	> 100 µM (inactive)	> 100 µM (inactive)
N#CCN(Cc1ccccc1)[C@H]1CCC[C@]1(O)/C=C/c1ccc2c(c1)OCO2	20 µM (inactive)	41.1 µM (inactive)	–	–	34.4 µM (inactive)	19.3 µM (inactive)	18.3 µM (inactive)	39.3 µM (inactive)	16 µM (inactive)	17.4 µM (inactive)	16.5 µM (inactive)	15.7 µM (inactive)	42.9 µM (inactive)	26.3 µM (inactive)	23.1 µM (inactive)	17.5 µM (inactive)	15.6 µM (inactive)	19.8 µM (inactive)	19.3 µM (inactive)	17.6 µM (inactive)
